Measured values reported in ChEMBL document CHEMBL1201862, “PubChem BioAssay data set” (2004).
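How tested: cells in 96-well plates exposed to compound for 48 hours at five concentrations. Here, GI50 denotes the concentration required for 50% inhibition of growth.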 Activity calls are given as the source filed them. Cut-off read from the data, not from the text of the source: active = GI50 up to about 1.1 µM and inactive = higher.

Experiments:
Experiment in all cases: DTP human tumour cell line panel, 48 h
TK-10 = tested on: TK-10
SF-539 = tested on: SF-539
RPMI-8226 = tested on: RPMI-8226
HCC 2998 = tested on: HCC 2998
OVCAR-8 = tested on: OVCAR-8
KM12 = tested on: KM12
ACHN = tested on: ACHN
CAKI-1 = tested on: CAKI-1
IGROV-1 = tested on: IGROV-1
NCI/ADR-RES = tested on: NCI/ADR-RES
UO-31 = tested on: UO-31
HL-60 = tested on: HL-60
DLD-1 = tested on: DLD-1
DMS-273 = tested on: DMS-273
NCI-H522 = tested on: NCI-H522
SNB-78 = tested on: SNB-78
HCT-116 = tested on: HCT-116
NCI-H226 = tested on: NCI-H226
DMS-114 = tested on: DMS-114
BT-549 = tested on: BT-549

Measured: GI50

CCOC(=O)c1csc(NC(=O)CN2CCOCC2)n1
inactive: TK-10 > 100 µM | SF-539 > 100 µM | RPMI-8226 > 100 µM | HCC 2998 > 100 µM | OVCAR-8 > 100 µM | KM12 > 100 µM | ACHN > 100 µM | CAKI-1 > 100 µM | IGROV-1 > 100 µM | NCI/ADR-RES > 100 µM | UO-31 > 100 µM | HL-60 > 100 µM

CCN(CC)CCNC(=O)C1COc2ccc(-c3cc(=O)c4ccccc4o3)cc2O1 (configuration not stated)
inactive: SF-539 15.8 µM | RPMI-8226 22.5 µM | DLD-1 22.9 µM | HCC 2998 19.2 µM | DMS-273 19.4 µM | NCI-H522 18.2 µM | OVCAR-8 16.7 µM | SNB-78 10.1 µM | KM12 18.2 µM | CAKI-1 20.5 µM | HCT-116 17.8 µM | IGROV-1 28.9 µM | NCI/ADR-RES 19.2 µM | UO-31 16 µM | NCI-H226 16.6 µM | HL-60 13.2 µM

C=CCNC(=O)N(CCCC(NC(C)=O)C(=O)NCc1ccccc1)Cc1ccccc1 (configuration not stated)
inactive: TK-10 > 100 µM | SF-539 > 100 µM | RPMI-8226 > 100 µM | DMS-273 > 100 µM | NCI-H522 > 100 µM | OVCAR-8 > 100 µM | KM12 > 100 µM | DMS-114 > 100 µM | ACHN > 100 µM | CAKI-1 > 100 µM | IGROV-1 > 100 µM | UO-31 > 100 µM | NCI-H226 > 100 µM | HL-60 > 100 µM

CC(C)C1N2CCCCC2[C@@H]2c3[nH]c4ccccc4c3CCN12 (some centres not stated)
inactive: SF-539 > 100 µM | RPMI-8226 > 100 µM | DLD-1 > 100 µM | HCC 2998 > 100 µM | DMS-273 > 100 µM | OVCAR-8 > 100 µM | SNB-78 > 100 µM | DMS-114 > 100 µM | ACHN > 100 µM | CAKI-1 > 100 µM | HCT-116 > 100 µM | IGROV-1 > 100 µM | UO-31 > 100 µM | HL-60 > 100 µM

COc1cc2c(cc1OC)C(Cl)C(c1ccc(Cl)c(Cl)c1)=C2Cl (configuration not stated)
inactive: TK-10 20.7 µM | SF-539 10.3 µM | RPMI-8226 3.14 µM | DMS-273 3.86 µM | NCI-H522 66.4 µM | OVCAR-8 6.62 µM | SNB-78 5.56 µM | DMS-114 3.42 µM | ACHN 10.2 µM | CAKI-1 11.2 µM | IGROV-1 10.7 µM | UO-31 10.6 µM | NCI-H226 8.99 µM | HL-60 2.47 µM

COC(=O)/C=C(C)/C=C\COC1CCCCO1 (configuration not stated)
inactive: TK-10 > 100 µM | RPMI-8226 > 100 µM | HCC 2998 > 100 µM | NCI-H522 > 100 µM | OVCAR-8 > 100 µM | KM12 > 100 µM | ACHN > 100 µM | CAKI-1 > 100 µM | HCT-116 > 100 µM | IGROV-1 > 100 µM | BT-549 > 100 µM | NCI/ADR-RES > 100 µM | UO-31 > 100 µM | NCI-H226 > 100 µM | HL-60 > 100 µM

COc1ccc(C2SCC(=O)N2NC(=O)c2ccncc2)cc1F (configuration not stated)
inactive: TK-10 > 100 µM | RPMI-8226 > 100 µM | DLD-1 > 100 µM | HCC 2998 > 100 µM | DMS-273 > 100 µM | NCI-H522 > 100 µM | SNB-78 > 100 µM | KM12 > 100 µM | DMS-114 > 100 µM | ACHN > 100 µM | CAKI-1 > 100 µM | HCT-116 > 100 µM | NCI-H226 > 100 µM | HL-60 > 100 µM

COc1cc(/C=N\O)cc(/C=N/O)c1O
inactive: TK-10 > 100 µM | SF-539 24.4 µM | RPMI-8226 15.5 µM | NCI-H522 75.9 µM | OVCAR-8 37.1 µM | KM12 > 100 µM | ACHN 26.2 µM | CAKI-1 28.6 µM | HCT-116 33.4 µM | IGROV-1 > 100 µM | BT-549 45.2 µM | NCI/ADR-RES 58.1 µM | UO-31 5.94 µM | NCI-H226 24.2 µM | HL-60 27.7 µM

Nc1nc(SCc2ccc([N+](=O)[O-])cc2)nc2c1ncn2C1OC(COP(=O)(O)O)C(O)C1O (configuration not stated)
inactive: TK-10 > 100 µM | SF-539 > 100 µM | DLD-1 > 100 µM | HCC 2998 > 100 µM | DMS-273 > 100 µM | NCI-H522 > 100 µM | OVCAR-8 > 100 µM | SNB-78 > 100 µM | KM12 > 100 µM | DMS-114 > 100 µM | ACHN > 100 µM | HCT-116 > 100 µM | IGROV-1 > 100 µM | NCI-H226 > 100 µM | HL-60 > 100 µM

CCOC(=O)/C(O)=C1\C(=O)N(C)C(=O)C1c1cccc(OC)c1 (configuration not stated)
inactive: SF-539 > 100 µM | RPMI-8226 > 100 µM | DLD-1 > 100 µM | HCC 2998 > 100 µM | DMS-273 > 100 µM | NCI-H522 > 100 µM | OVCAR-8 > 100 µM | SNB-78 > 100 µM | KM12 > 100 µM | DMS-114 > 100 µM | CAKI-1 > 100 µM | HCT-116 > 100 µM | IGROV-1 > 100 µM | NCI/ADR-RES > 100 µM | UO-31 > 100 µM | NCI-H226 > 100 µM | HL-60 > 100 µM

COc1ccc(C2c3cc4c(cc3OC(O)(CO)C2C(=O)O)OCO4)cc1.COc1ccc(C2c3cc4c(cc3OC3(O)COC(=O)C23)OCO4)cc1 (configuration not stated)
inactive: TK-10 67.6 µM | SF-539 20.7 µM | RPMI-8226 20.4 µM | DLD-1 21.8 µM | HCC 2998 20.2 µM | DMS-273 4.14 µM | OVCAR-8 20.5 µM | SNB-78 23.2 µM | KM12 28.2 µM | DMS-114 22.2 µM | HCT-116 18.2 µM | IGROV-1 20.4 µM | UO-31 29.9 µM | NCI-H226 22.5 µM | HL-60 17.2 µM

N#Cc1c(-c2ccc([N+](=O)[O-])cc2)cc(-c2ccc(Nc3ccnc4cc(C(F)(F)F)ccc34)cc2)nc1N
inactive: TK-10 > 48.2 µM | SF-539 26.9 µM | RPMI-8226 4.27 µM | HCC 2998 14.1 µM | NCI-H522 17.2 µM | OVCAR-8 20.1 µM | KM12 7.19 µM | ACHN 29.6 µM | CAKI-1 18.5 µM | HCT-116 6.92 µM | IGROV-1 8.53 µM | BT-549 37.2 µM | NCI/ADR-RES 8.89 µM | UO-31 14.7 µM | NCI-H226 > 48.3 µM

COC(=O)C12CCCN1CCC2
inactive: TK-10 > 100 µM | HCC 2998 > 100 µM | NCI-H522 > 100 µM | KM12 > 100 µM | ACHN > 100 µM | CAKI-1 > 100 µM | HCT-116 > 100 µM | BT-549 > 100 µM | NCI/ADR-RES > 100 µM | UO-31 > 100 µM | NCI-H226 > 100 µM
